The source of these data is patent US9315475B2 (MERCK SHARP & DOHME CORP., priority 2011, dated 2016).

Structures can show the parent of a compound that is named as a salt.

In one assay the target is T1, wildtype HIV-1 protease (Human immunodeficiency virus type 1 group M subtype B, UniProt P04585).
T1 construct: the wildtype HIV-1 protease (which was expressed in Escherichia coli); made in house; host or cells: Escherichia coli
The assay can be described thus: Assay for inhibition of microbial expressed HIV protease (Pepcleav). The class given is biochemical. As to conditions: wild type HIV-1 protease expressed in E. coli, peptide substrate, pH 5.5; mean of at least two independent experiments; read-out: Pepcleav. The method in brief: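 E. coli-expressed wild-type HIV-1 protease (20 pM) preincubated 30 min at room temperature with inhibitor in pH 5.5 sodium acetate/NaCl/BSA buffer, then 400 μM Val-Ser-Gln-Asn-(βnaphthyl)Ala-Pro-Ile-Val added for 1 h at 30 °C. Quenched with formic acid; product quantified by LC-MS/MS peak area, indinavir internal standard.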

The test system of another assay is HIV-1 (H9IIIB strain). Description: Antiviral acute infection assay in cell culture (Spread). It is filed as cell-based. The conditions noted are these: Human immunodeficiency virus 1, T-lymphoid, HIV-1 H9IIIB infection of MT-4 human T-lymphoid cells in 10% FBS; mean of at least two independent experiments. An excerpt: Antiviral Assays in Cell Culture (“Spread”)
Acute Infection Assay (“Spread”) data were generated using HIV-1 (H9IIIB strain) infection of MT-4 human T-lymphoid cells in 10% FBS, and according to the methods disclosed by J. P. Vacca et al, “L-735,524: An orally bioavailable human immunodeficiency virus type 1 protease inhibitor,” Proc. Natl. Acad. Sci. USA, Vol. 91, pp. 4096-4100 (April 1994).

Take `N[C@H](C(=O)Nc1cncc(F)c1CC[C@@H]1CN[C@H](COC(=O)NCc2ccno2)CO1)C(c1ccc(F)cc1)c1ccc(F)cc1` [Example 255, 4-fluoro-N-(5-fluoro-4-{2-[(2R,5S)-5-({[(isoxazol-5-ylmethyl)carbamoyl]oxy}methyl)morpholin-2-yl]ethyl}pyridin-3-yl)-β-(4-fluorophenyI)-L-phenylalaninamide]: the IC50 on wildtype HIV-1 protease was 0.0064 µM. For the same compound, the EC50 (as a rule, the concentration needed to bring the measured effect to its halfway point) in the assay with HIV-1 (H9IIIB strain) came to 0.21 µM.

For the compound `COC(=O)N[C@H](C(=O)Nc1cccc(F)c1CC[C@@H]1CN[C@H](COC(=O)NCC(F)(F)F)CO1)[C@@H](c1ccc(F)cc1)c1cc(F)cc(F)c1` [Example 292, (βS)-3,5-difluoro-β-(4-fluorophenyl)-N-(3-fluoro-2-{2-[(2R,5S)-5-({[(2,2,2-trifluoroethyl)carbamoyl]oxy}methyl)morpholin-2-yl]ethyl}phenyl)-Nα-(methoxy-carbonyl)-L-phenylalaninamide], at wildtype HIV-1 protease, the IC50 is 0.0036 µM. This compound also registered an EC50 in the assay on HIV-1 (H9IIIB strain) of 0.016 µM.

Regarding `N[C@H](C(=O)Nc1cncc(F)c1CC[C@@H]1CN[C@H](COC(=O)NCC(F)(F)F)CO1)[C@H](c1ccc(F)cc1)c1ccc(Cl)cc1` [Example 267, (βR)-β-(4-chlorophenyl)-4-fluoro-N-(5-fluoro-4-{2-[(2R,5S)-5-({[(2,2,2-trifluoroethyl)carbamoyl]oxy}methyl)morpholin-2-yl]ethyl}pyridin-3-yl)-L-phenylalaninamide], at wildtype HIV-1 protease, the IC50 amounted to 0.0031 µM. The compound further yielded a 50% effective concentration (EC50) in the assay on HIV-1 (H9IIIB strain) of 0.051 µM.

In the case of `N[C@H](C(=O)Nc1cncc(F)c1CC[C@@H]1CN[C@H](COC(=O)NC2CC(F)(F)C2)CO1)C(c1ccc(F)cc1)c1ccc(F)cc1` [Example 217, N-(4-{2-[(2R,5S)-5-({[(3,3-difluorocyclobutyl)carbamoyl]oxy}methyl)morpholin-2-yl]ethyl}-5-fluoropyridin-3-yl)-4-fluoro-β-(4-fluorophenyl)-L-phenylalaninamide], the IC50 at wildtype HIV-1 protease worked out at 0.0027 µM. This compound yielded a concentration for a half-maximal effect (EC50) in the assay with HIV-1 (H9IIIB strain) of 0.094 µM.

For the compound `CN[C@H](C(=O)Nc1cncc(F)c1CC[C@@H]1CN[C@H](COC(=O)NCC(F)(F)F)CO1)C(c1ccc(F)cc1)c1ccc(F)cc1` [Example 202, 4-fluoro-β-(4-fluorophenyl)-N-(5-fluoro-4-{2-[(2R,5S)-5-({[(2,2,2-trifluoroethyl)carbamoyl]oxy}methyl)morpholin-2-yl]ethyl}pyridin-3-yl)-Nα-methyl-L-phenylalaninamide], the IC50 at wildtype HIV-1 protease came out at 0.028 µM. In addition, the EC50 with HIV-1 (H9IIIB strain) was determined as 0.065 µM.

With `COC(=O)N[C@H](C(=O)Nc1cncc(F)c1CC[C@@H]1CN[C@H](COC(=O)NCC(F)(F)F)CO1)[C@H](c1ccc(F)cc1)c1ccc(F)c(F)c1` [Example 297, (βR)-3,4-difluoro-β-(4-fluorophenyl)-N-(5-fluoro-4-{2-[(2R,5S)-5-({[(2,2,2-trifluoroethyl)carbamoyl]oxy}methyl)morpholin-2-yl]ethyl}pyridin-3-yl)-Nα-(methoxycarbonyl)-L-phenylalaninamide], the IC50 at wildtype HIV-1 protease turned out to be 0.001 µM. The EC50 in the assay on HIV-1 (H9IIIB strain) is 0.015 µM.

`N[C@H](C(=O)Nc1cncc(F)c1CC[C@@H]1CN[C@H](COC(=O)NCc2cc3ccccc3cn2)CO1)C(c1ccc(F)cc1)c1ccc(F)cc1` [Example 239, {(3S,6R)-6-[2-(3-fluoro-5-{[4-fluoro-β-(4-fluorophenyl)-L-phenylalanyl]amino}pyridin-4-yl)ethyl]morpholin-3-yl}methyl (isoquinolin-3-ylmethyl)carbamatc]: the IC50 on wildtype HIV-1 protease is 0.045 µM. In the assay with HIV-1 (H9IIIB strain), this compound had an EC50 of 0.42 µM.

`O=C(C[C@@H](c1ccc(F)cc1)c1cc(F)ccc1F)Nc1cncc(F)c1CC[C@@H]1CN[C@H](COC(=O)NCC(F)(F)F)CO1` [Example 149, {(3S,6R)-6-[2-(3-{[(3S)-3-(2,5-difluorophenyl)-3-(4-fluorophenyl)propanoyl]amino}-5-fluoropyridin-4-yl)ethyl]morpholin-3-yl}methyl (2,2,2-trifluoroethyl)carbamate]: the IC50 on wildtype HIV-1 protease came to 0.0014 µM. Besides, the EC50 in the assay with HIV-1 (H9IIIB strain) is 0.014 µM.

With `N[C@H](C(=O)Nc1cncc(F)c1CC[C@@H]1CN[C@H](COC(=O)NCC(F)(F)F)CO1)[C@@H](c1ccc(F)cc1)c1cc(F)ccc1F` [Example 268, (βS)-2,5-difluoro-β-(4-fluorophenyl)-N-(5-fluoro-4-{2-[(2R,5S)-5-({[(2,2,2-trifluoroethyl)carbamoyl]oxy}methyl)morpholin-2-yl]ethyl}pyridin-3-yl)-L-phenylalaninamide], the IC50 at wildtype HIV-1 protease was 0.0028 µM. This compound also gave an EC50 in the assay with HIV-1 (H9IIIB strain) of 0.044 µM.

For `N[C@H](C(=O)Nc1cccc(F)c1CC[C@@H]1CN[C@H](COC(=O)NCC(F)(F)F)CO1)C(c1ccc(F)cc1)c1ccc(F)cc1` [Example 80, 4-Fluoro-β-(4-fluorophenyl)-N-(3-fluoro-2-{2-[(2R,5S)-5-({[(2,2,2-trifluoroethyl)carbamoyl]oxy}methyl)morpholin-2-yl]ethyl}phenyl)-L-phenylalaninamide dihydrochloride], at wildtype HIV-1 protease, the IC50 is 0.0094 µM. For the same compound, in the assay with HIV-1 (H9IIIB strain), the EC50 was 0.045 µM.

Regarding `N[C@H](C(=O)Nc1cncc(F)c1CC[C@@H]1CN[C@H](COC(=O)NCC(F)(F)F)CO1)[C@H](c1ccc(F)cc1)c1ccc(OC(F)(F)F)cc1` [Example 246, (βS)-β-(4-fluorophenyl)-N-(5-fluoro-4-{2-[(2R,5S)-5-({[(2,2,2-trifluoroethyl)carbamoyl]oxy}methyl)morpholin-2-yl]ethyl}pyridin-3-yl)-O-(trifluoromethyl)-L-tyrosinamide], the IC50 at wildtype HIV-1 protease was determined as 0.013 µM. In the assay with HIV-1 (H9IIIB strain), this compound showed an EC50 of 0.39 µM.

`NC(=O)OC[C@@H]1CO[C@H](COc2c(F)cncc2NC(=O)[C@@H](N)C(c2ccc(F)cc2)c2ccc(F)cc2)CN1` [Example 206, N-[4-({(2S,5S)-5-[(carbamoyloxy)methyl]morpholin-2-yl}methoxy)-5-fluoropyridin-3-yl]-4-fluoro-β-(4-fluorophenyl)-L-phenylalaninamide]: at wildtype HIV-1 protease, the IC50 came out at 0.021 µM. This compound showed a 50% effective concentration (EC50) in the assay on HIV-1 (H9IIIB strain) of 0.12 µM.

Turning to `NC(=O)OC[C@@H]1CO[C@H](CCc2c(F)cccc2NC(=O)[C@@H](N)C(c2ccc(F)cc2)c2ccc(F)cc2)CN1` [Example 116, N-[2-(2-{(2R,5S)-5-[(Carbamoyloxy)methyl]morpholin-2-yl}ethyl)-3-fluorophenyl]-4-fluoro-β-(4-fluorophenyl)-L-phenylalaninamide], on wildtype HIV-1 protease, the IC50 came out at 0.017 µM. In addition, in the assay on HIV-1 (H9IIIB strain), the EC50 stood at 0.047 µM.

`O=C(CC(c1ccccc1)c1ccccc1)Nc1cncc(F)c1CC[C@@H]1CN[C@H](COC(=O)NCC(F)(F)F)CO1` [Example 146, [(3S,6R)-6-(2-{3-[(3,3-diphenylpropanoyl)amino]-5-fluoropyridin-4-yl}ethyl)morpholin-3-yl]methyl (2,2,2-trifluoroethyl)carbamate]: on wildtype HIV-1 protease, the IC50 was determined as 0.013 µM. The compound further displayed an EC50 with HIV-1 (H9IIIB strain) of 0.047 µM.

On to `COC(=O)N[C@H](C(=O)Nc1cccc(F)c1CC[C@@H]1CN[C@H](COC(=O)NCC(F)(F)F)CO1)[C@@H](c1ccc(F)cc1)C1CCOCC1` [Example 130, (βR)-4-Fluoro-N-(3-fluoro-2-{2-[(2R,5S)-5-({[(2,2,2-trifluoroethyl)carbamoyl]oxy}methyl)morpholin-2-yl]ethyl}phenyl)-Nα-(methoxycarbonyl)-β-(tetrahydro-2H-pyran-4-yl)-L-phenylalaninamide], for which the IC50 on wildtype HIV-1 protease worked out at 0.068 µM. The concentration giving a half-maximal response (EC50) with HIV-1 (H9IIIB strain) worked out at 0.026 µM.

As to `N[C@H](C(=O)Nc1cccc(F)c1CC[C@@H]1CN[C@H](COC(=O)NCC(F)(F)F)CO1)[C@H](c1ccccc1)c1ccc(F)c(F)c1` [Example 269, (βR)-β-(3,4-difluorophenyl)-N-(3-fluoro-2-{2-[(2R,5S)-5-({[(2,2,2-trifluoroethyl)carbamoyl]oxy}methyl)morpholin-2-yl]ethyl}phenyl)-L-phenylalaninamide], the IC50 at wildtype HIV-1 protease is 0.0027 µM. Moreover, in the assay with HIV-1 (H9IIIB strain), a half-maximal effect (EC50) was put at 0.025 µM.

For the compound `N[C@H](C(=O)Nc1cncc(F)c1CC[C@@H]1CN[C@H](COC(=O)NCC2CNC(=O)O2)CO1)C(c1ccc(F)cc1)c1ccc(F)cc1` (stereo partly drawn) [Example 240, 4-fluoro-N-[5-fluoro-4-(2-{(2R,5S)-5-[({[(2-oxo-1,3-oxazolidin-5-yl)methyl]carbamoyl}oxy)methyl]morpholin-2-yl}ethyl)pyridin-3-yl]-β-(4-fluorophenyl)-L-phenylalaninamide], at wildtype HIV-1 protease, the IC50 came to 0.039 µM. The compound also showed a half-maximal effective concentration (EC50) in the assay with HIV-1 (H9IIIB strain) of 5 µM.

As for `N[C@H](C(=O)Nc1cncc(F)c1CC[C@@H]1CN[C@H](COC(=O)NCC(F)(F)F)CO1)[C@H](c1ccc(F)cc1)c1cccc(F)c1` (stereo in doubt) [Example 92], the IC50 at wildtype HIV-1 protease is 0.0044 µM. Also, a half-maximal effect in the assay with HIV-1 (H9IIIB strain) (EC50) was put at 0.043 µM.

As for `N[C@H](C(=O)Nc1cccc(F)c1CC[C@@H]1CN[C@H](COC(=O)NCC(F)(F)F)CO1)[C@H](c1ccccc1)c1cccc(Cl)c1` [Example 244, (βR)-3-chloro-N-(3-fluoro-2-{2-[(2R,5S)-5-({[(2,2,2-trifluoroethyl)carbamoyl]oxy}methyl)morpholin-2-yl]ethyl}phenyl)-β-phenyl-L-phenylalaninamide], the IC50 at wildtype HIV-1 protease is 0.022 µM. The compound further gave an EC50 in the assay with HIV-1 (H9IIIB strain) of 0.12 µM.

Turning to `N[C@H](C(=O)Nc1cncc(F)c1CC[C@@H]1CN[C@H](C(=O)Nc2ccccc2O)CO1)C(c1ccc(F)cc1)c1ccc(F)cc1` [Example 271, 4-fluoro-N-[5-fluoro-4-(2-{(2R,5S)-5-[(2-hydroxyphenyl)carbamoyl]morpholin-2-yl}ethyl)pyridin-3-yl]-β-(4-fluorophenyl)-L-phenylalaninamide], on wildtype HIV-1 protease, the IC50 turned out to be 0.002 µM. The EC50 in the assay with HIV-1 (H9IIIB strain) stood at 0.81 µM.
